Test results as given in US4396550A, “Dibenz [b,e] oxepin derivatives” (Kyowa Hakko Kogyo Co., Ltd., priority 1980, dated 1983).

Key:
[1] = test system: blood platelets (platelet-rich plasma); test: Test for the inhibition of platelet aggregation (collagen-induced, platelet-rich plasma); format: cell-based, male white rabbits; details: Oryctolagus cuniculus, Platelet, 0.05 h; depressing ratio of 50% of collagen-induced aggregation; compound 3 minutes before; read-out: Antiplatelet aggregation activity: MED
Procedure, shortened: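 Citrated carotid blood from male white rabbits (2–2.5 kg) spun at 1,000 rpm for 15 min to give PRP. Compound added 3 min before collagen, dosed to give 50% aggregation in the presence of 100 γ/ml aspirin; aggregation followed by aggregometer, activity scored as 50% depression versus collagen alone.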

[2] = test system: isolated ileum of guinea-pig; test: Test for antihistaminergic effects on the isolated ileum of guinea-pig (histamine contraction, in vitro); design: species or system guinea-pig (male Hartly-strain); details: Cavia porcellus, 0.05 h; depressing ratio of 80% or more of histamine contraction; read-out: Antihistaminergic activity: MED
Procedure, shortened: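 Ileum segments from male Hartley guinea-pigs (~250 g) suspended in Tyrode's solution at 32±1 °C, contractions recorded on kymograph. Test compound given 3 min before agonist challenge with 0.1 ml histamine at 5×10^-3 g/l.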

[3] = test system: isolated ileum of guinea-pig; test: Test for anticholinergic effects on the isolated ileum of guinea-pig (acetylcholine contraction, in vitro); design: species or system guinea-pig (male Hartly-strain); details: Cavia porcellus, 0.05 h; depressing ratio of 80% or more of acetylcholine contraction; compound 3 minutes before; read-out: Anticholinergic activity: MED (minimum effective dose)
Procedure: Male Hartly-strain guinea-pigs weighing about 250 g are killed and the abdomen is opened. The part (2-3 cm in length) of the ileum 10 cm away from the caecum to the pylorus is cut off as a preparation. The preparation is suspended with serre-fine in a Magnus bath containing 10 ml of Tyrode's solution at 32±1° C. under an air bubble. The contraction of the ileum is recorded on Kymograph through hebel when 0.1 ml of acetylcholine at a concentration of 10^-3 g/ml is added to the Tyrode's solution.
On the other hand, 3 minutes after administration of the test compounds, the same procedure as mentioned above is carried out to record the contraction.

[4] = Antiasthmatic activity; format: in vivo; details: po; read-out: Antiasthmatic activity: MED
[5] = test system: male dd-strain rats; test: Acute toxicity test (minimum lethal dose); format: in vivo; details: mortality for 7 days
Procedure: Groups of male dd-strain rats (each group consisting of five rats) weighing 20±1 g were used. The compounds of the present invention were administered orally (po: 0.3 mg/g) or intraperitoneally (ip: 0.1 mg/g). The MLD (minimum lethal dose) was calculated from the mortality for 7 days after the administration to obtain the results given in Table 1.

Structure (SMILES)	minimal effective concentration [1] [µg/mL]	minimal effective concentration [2] [µg/mL]	minimal effective concentration [3] [µg/mL]	minimal effective dose [4] [mg/kg]	Acute toxicity: MLD (minimum lethal dose) ([5]; ip) [mg/kg]	Acute toxicity: MLD (minimum lethal dose) ([5]; po) [mg/kg]
CCc1ccc2c(c1)C(NC1CN3CCC1CC3)c1ccccc1CO2 (stereo not drawn) [Compound 21, 2-ethyl-11-(3-quinuclidinyl)amino-6,11-dihydrodibenz[b,e]oxepin]	50	0.1	0.1	25	100	300
Fc1ccc2c(c1)C(NC1CN3CCC1CC3)c1ccccc1CO2 (stereo not drawn) [Compound 22, 2-fluoro-11-(3-quinuclidinyl)amino-6,11-dihydrodibenz[b,e]oxepin]	100	0.3	0.3	50	100	300
Clc1ccc2c(c1)C(NC1CN3CCC1CC3)c1ccccc1CO2 (stereo not drawn) [Compound 23, 2-chloro-11-(3-quinuclidinyl)amino-6,11-dihydrodibenz[b,e]oxepin]	100	0.3	1	50	100	300
COc1ccc2c(c1)C(NC1CN3CCC1CC3)c1ccccc1CO2 (stereo not drawn) [Compound 24, 2-methoxy-11-(3-quinuclidinyl)amino-6,11-dihydrodibenz[b,e]oxepin]	100	0.1	0.3	50	100	200
CCN1CCCC1CNC1c2ccccc2COc2ccc(C)cc21 (stereo not drawn) [Compound 28, 2-methyl-11-{(1-ethyl-2-pyrrolidinyl)methyl}-amino-6,11-dihydrodibenz[b,e]oxepin]	50	1	1	25	100	300
CCc1ccc2c(c1)C(NCCN1CCCCC1)c1ccccc1CO2 (stereo not drawn) [Compound 35, 2-ethyl-11-(2-piperidinoethyl)amino-6,11-dihydrodibenz[b,e]oxepin]	20	1	3	25	> 100	300
CCc1ccc2c(c1)C(N1CCN(CCO)CC1)c1ccccc1CO2 (stereo not drawn) [Compound 38, 2-ethyl-11-{4-(2-hydroxyethyl)-1-piperazinyl}-6,11-dihydrodibenz[b,e]oxepin]	100	1	1	100	> 100	> 300
OCCN1CCN(C2c3ccccc3COc3ccc(F)cc32)CC1 (stereo not drawn) [Compound 39, 2-fluoro-11-{4-(2-hydroxyethyl)-1-piperazinyl}-6,11-dihydrodibenz[b,e]oxepin]	50	10	1	100	100	> 300
CCC(C)c1ccc2c(c1)C(NC1CN3CCC1CC3)c1ccccc1CO2 (stereo not drawn) [Compound 51, 2-(1-methyl)propyl-11-(3-quinuclidinyl)amino-6,11-dihydrodibenz[b,e]oxepin]	50	0.3	1	50	100	> 300
CC(C)(C)c1ccc2c(c1)C(NC1CN3CCC1CC3)c1ccccc1CO2 (stereo not drawn) [Compound 52, 2-(1,1-dimethyl)ethyl-11-(3-quinuclidinyl)amino-6,11-dihydrodibenz[b,e]oxepin]	1	0.3	3	50	100	> 300
Cc1ccc2c(c1)C(NCCN1CCCC1)c1ccccc1CO2 (stereo not drawn) [Compound 58, 2-methyl-11-{2-(1-pyrrolidinyl)ethyl}amino-6,11-dihydrodibenz[b,e]oxepin]	50	0.1	3	25	> 100	300
CCc1ccc2c(c1)C(N1CCN(C)CC1)c1ccccc1CO2 (stereo not drawn) [Compound 66, 2-ethyl-11-(4-methyl-1-piperazinyl)-6,11-dihydrodibenz[b,e]oxepin]	50	1	10	10	> 100	> 300
Cc1ccc2c(c1)C(N1CCN(C)CC1)c1ccccc1CO2 (stereo not drawn) [Compound 67, 2-methyl-11-(4-methyl-1-piperazinyl)-6,11-dihydrodibenz[b,e]oxepin]	50	0.3	10	25	> 100	> 300
COc1ccc2c(c1)C(N1CCN(C)CC1)c1ccccc1CO2 (stereo not drawn) [Compound 68, 2-methoxy-11-(4-methyl-1-piperazinyl)-6,11-dihydrodibenz[b,e]oxepin]	100	3	10	100	100	200
CN1CCN(C2c3ccccc3COc3ccc(F)cc32)CC1 (stereo not drawn) [Compound 69, 2-fluoro-11-(4-methyl-1-piperazinyl)-6,11-dihydrodibenz[b,e]oxepin]	100	10	3	100	> 100	100
CN1CCN(C2c3ccccc3COc3ccc(Cl)cc32)CC1 (stereo not drawn) [Compound 70, 2-chloro-11-(4-methyl-1-piperazinyl)-6,11-dihydrodibenz[b,e]oxepin]	50	0.3	1	10	100	200
